Measured values reported in patent US20240150362A1, “Substituted Pyrrolotriazines” (Molecure S.A., priority 2022, published 2024).
Counter-ions that a name gives are not always drawn.

Target: T1, full-length USP7 (Homo sapiens, UniProt Q93009)
T1 construct: A 45 μl reaction volume containing full-length USP7 (0.5-1.0 nM)
Assay: Enzymatic assay to determine IC50 of USP7 inhibitors (Ubiquitin-Rhodamine 110 cleavage)
Type: biochemical
Details: full-length USP7 0.5-1.0 nM, 0.5 μM Ubiquitin-Rhodamine 110, 30-60 min at 25° C.
Procedure: Enzymatic Assay to Determine IC50 of USP7 Inhibitors
The IC50 is the concentration of an inhibitor where the measured enzyme activity is reduced by half. In the case of USP7 deubiquitinase, the IC50 of an USP7 inhibitor is the molar concentration of the compound that inhibits 50% of the activity observed in a USP7-mediated-ubiquitin-rhodamine cleavage assay. For the inhibitors disclosed herein, their potency was measured using the following method.
A 45 μl reaction volume containing full-length USP7 (0.5-1.0 nM) in 50 mM HEPES pH 7.5, 150 mM NaCl, 2 mM DTT, 1 mg/ml BSA and 0.05% Tween20 was assembled in wells of 96 well half area black flat bottom plates. Test compounds were first dissolved to 30 mM stocks in DMSO and subsequently introduced to enzyme 15 min after USP7 incubation with DTT at room temperature. The enzymatic reaction was started by adding 0.5 μM Ubiquitin-Rhodamine 110 (final concentration) and allowed to proceed for 30-60 min at 25° C., 250 RPM shaking before Rhodamine fluorescence (485 nm excitation/535 nm emission) was measured using Tecan Spark M10 plate reader. The IC50 values were determined by data fitting to variable slope model four-parameter dose-response curve using GraphPad 7.05.

T1 sequence (Q93009 whole entry): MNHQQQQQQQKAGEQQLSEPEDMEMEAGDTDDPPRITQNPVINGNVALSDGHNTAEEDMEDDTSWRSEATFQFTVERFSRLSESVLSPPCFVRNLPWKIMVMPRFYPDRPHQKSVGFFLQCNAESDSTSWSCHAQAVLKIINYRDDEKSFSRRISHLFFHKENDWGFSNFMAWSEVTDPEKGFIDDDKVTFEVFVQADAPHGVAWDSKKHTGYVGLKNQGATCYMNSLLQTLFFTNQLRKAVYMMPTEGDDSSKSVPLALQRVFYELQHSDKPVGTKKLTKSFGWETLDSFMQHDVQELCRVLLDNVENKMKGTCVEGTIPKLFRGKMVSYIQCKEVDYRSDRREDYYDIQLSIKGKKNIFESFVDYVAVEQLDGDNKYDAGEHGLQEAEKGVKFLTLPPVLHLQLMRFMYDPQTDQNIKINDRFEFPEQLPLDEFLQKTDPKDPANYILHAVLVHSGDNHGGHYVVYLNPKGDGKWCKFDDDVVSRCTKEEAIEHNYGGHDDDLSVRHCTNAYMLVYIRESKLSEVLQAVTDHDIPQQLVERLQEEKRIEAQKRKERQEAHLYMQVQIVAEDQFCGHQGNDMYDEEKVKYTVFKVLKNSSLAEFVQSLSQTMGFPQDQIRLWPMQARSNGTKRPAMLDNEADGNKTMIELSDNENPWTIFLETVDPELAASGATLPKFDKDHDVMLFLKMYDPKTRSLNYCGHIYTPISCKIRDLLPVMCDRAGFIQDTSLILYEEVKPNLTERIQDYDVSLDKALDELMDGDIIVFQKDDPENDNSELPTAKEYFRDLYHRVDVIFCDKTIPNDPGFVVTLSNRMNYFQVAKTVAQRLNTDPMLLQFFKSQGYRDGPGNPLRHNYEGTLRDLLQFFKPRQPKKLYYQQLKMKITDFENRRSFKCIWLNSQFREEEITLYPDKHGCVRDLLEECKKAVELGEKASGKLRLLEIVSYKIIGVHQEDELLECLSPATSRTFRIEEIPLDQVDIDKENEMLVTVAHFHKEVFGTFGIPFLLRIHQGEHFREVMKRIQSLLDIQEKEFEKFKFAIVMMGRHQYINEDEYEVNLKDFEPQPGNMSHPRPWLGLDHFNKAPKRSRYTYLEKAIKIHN

SMILES	IC50
Cc1cc(Cl)cc(-c2ncnn3cc(Cn4c(=O)ccn(CC(F)(F)F)c4=O)cc23)c1CC1CNC[C@H](C)O1 (stereo partly drawn) [Example 62, 3-((4-(5-chloro-3-methyl-2-(((6S)-6-methylmorpholin-2-yl)methyl)phenyl)pyrrolo[2,1-f][1,2,4]triazin-6-yl)methyl)-1-(2,2,2-trifluoroethyl)pyrimidine-2,4(1H,3H)-dione hydrochloride]	< 0.5 µM
CC1(C)C2C(=O)N(Cc3cc4c(-c5cc(Cl)cc6c5N(CC5(F)CCNCC5)CCC6)ncnn4c3)C(=O)C21 (centres unmarked) [Example 63, 3-((4-(6-chloro-1-((4-fluoropiperidin-4-yl)methyl)-1,2,3,4-tetrahydroquinolin-8-yl)pyrrolo[2,1-f][1,2,4]triazin-6-yl)methyl)-6,6-dimethyl-3-azabicyclo[3.1.0]hexane-2,4-dione hydrochloride]	< 0.5 µM
O=c1ccn(CC(F)(F)F)c(=O)n1Cc1cc2c(-c3cc(Cl)cc4ccn(CC5(F)CCNCC5)c34)ncnn2c1 [Example 70, 3-((4-(5-chloro-1-((4-fluoropiperidin-4-yl)methyl)-1H-indol-7-yl)pyrrolo[2,1-f][1,2,4]triazin-6-yl)methyl)-1-(2,2,2-trifluoroethyl)pyrimidine-2,4(1H,3H)-dione dihydrochloride]	< 0.5 µM
Cc1cc(Cl)cc(-c2ncnn3cc(CN4C(=O)C5C(C4=O)C5(C)C)cc23)c1NCC1(C)CCNCC1 (centres unmarked) [Example 78, 3-((4-(5-chloro-3-methyl-2-(((4-methylpiperidin-4-yl)methyl)amino)phenyl)pyrrolo[2,1-f][1,2,4]triazin-6-yl)methyl)-6,6-dimethyl-3-azabicyclo[3.1.0]hexane-2,4-dione dihydrochloride]	< 0.5 µM
Cc1cc(Cl)cc(-c2ncnn3cc(CN4C(=O)C5C(C4=O)C5(C)C)cc23)c1NCC1(F)CCNCC1 (centres unmarked) [Example 80, 3-((4-(5-chloro-2-(((4-fluoropiperidin-4-yl)methyl)amino)-3-methylphenyl)pyrrolo[2,1-f][1,2,4]triazin-6-yl)methyl)-6,6-dimethyl-3-azabicyclo[3.1.0]hexane-2,4-dione dihydrochloride]	< 0.5 µM
C[C@@H]1CN(C2CCNC2)c2c(cc(Cl)cc2-c2ncnn3cc(CN4C(=O)C5C(C4=O)C5(C)C)cc23)O1 (stereo partly drawn) [Example 93, 3-((4-((2R)-7-chloro-2-methyl-4-(pyrrolidin-3-yl)-3,4-dihydro-2H-benzo[b][1,4]oxazin-5-yl)pyrrolo[2,1-f][1,2,4]triazin-6-yl)methyl)-6,6-dimethyl-3-azabicyclo[3.1.0]hexane-2,4-dione hydrochloride]	< 0.5 µM
C[C@H]1CN(C2CCNC2)c2c(cc(Cl)cc2-c2ncnn3cc(CN4C(=O)C5C(C4=O)C5(C)C)cc23)O1 (stereo partly drawn) [Example 94, 3-((4-((2S)-7-chloro-2-methyl-4-(pyrrolidin-3-yl)-3,4-dihydro-2H-benzo[b][1,4]oxazin-5-yl)pyrrolo[2,1-f][1,2,4]triazin-6-yl)methyl)-6,6-dimethyl-3-azabicyclo[3.1.0]hexane-2,4-dione hydrochloride]	< 0.5 µM
Cc1cc(Cl)cc(-c2ncnn3cc(Cn4c(=O)ccn(CC(F)F)c4=O)cc23)c1CC1CNC[C@H](C)O1 (stereo partly drawn) [Example 95, 3-((4-(5-chloro-3-methyl-2-(((6S)-6-methylmorpholin-2-yl)methyl)phenyl)pyrrolo[2,1-f][1,2,4]triazin-6-yl)methyl)-1-(2,2-difluoroethyl)pyrimidine-2,4(1H,3H)-dione hydrochloride]	< 0.5 µM

Second part, the compound after the results:

IC50	SMILES
< 0.5 µM	Cc1cc(Cl)cc(-c2ncnn3cc(Cn4c(=O)ccn(CCF)c4=O)cc23)c1CC1CNC[C@H](C)O1 (stereo partly drawn) [Example 101, 3-((4-(5-chloro-3-methyl-2-(((6S)-6-methylmorpholin-2-yl)methyl)phenyl)pyrrolo[2,1-f][1,2,4]triazin-6-yl)methyl)-1-(2-fluoroethyl)pyrimidine-2,4(1H,3H)-dione hydrochloride]
< 0.5 µM	Cc1cc(Cl)cc(-c2ncnn3cc(CN4C(=O)CCN(C)C4=O)cc23)c1CC1CNC[C@H](C)O1 (stereo partly drawn) [Example 109, 3-((4-(5-chloro-3-methyl-2-(((6S)-6-methylmorpholin-2-yl)methyl)phenyl)pyrrolo[2,1-f][1,2,4]triazin-6-yl)methyl)-1-methyldihydropyrimidine-2,4(1H,3H)-dione hydrochloride]
< 0.5 µM	Cc1cc(Cl)cc(-c2ncnn3cc(Cn4c(=O)ccn(C(C)C)c4=O)cc23)c1CC1CNC[C@H](C)O1 (stereo partly drawn) [Example 111, 3-((4-(5-chloro-3-methyl-2-(((6S)-6-methylmorpholin-2-yl)methyl)phenyl)pyrrolo[2,1-f][1,2,4]triazin-6-yl)methyl)-1-isopropylpyrimidine-2,4(1H,3H)-dione hydrochloride]
< 0.5 µM	Cn1ccc(=O)n(Cc2cc3c(-c4cc(Cl)cc(Cl)c4CC4CNCCO4)ncnn3c2)c1=O (centres unmarked) [Example 118, 3-((4-(3,5-dichloro-2-(morpholin-2-ylmethyl)phenyl)pyrrolo[2,1-f][1,2,4]triazin-6-yl)methyl)-1-methylpyrimidine-2,4(1H,3H)-dione hydrochloride]
< 0.5 µM	O=c1cc[nH]c(=O)n1Cc1cc2c(-c3cc(Cl)cc4ccn(CC5(F)CCNCC5)c34)ncnn2c1 [Example 130, 3-((4-(5-chloro-1-((4-fluoropiperidin-4-yl)methyl)-1H-indol-7-yl)pyrrolo[2,1-f][1,2,4]triazin-6-yl)methyl)pyrimidine-2,4(1H,3H)-dione hydrochloride]
< 0.5 µM	Cl.[2H]C([2H])([2H])n1ccc(=O)n(Cc2cc3c(-c4cc(Cl)cc5ccn(CC6(F)CCNCC6)c45)ncnn3c2)c1=O [Example 131, 3-((4-(5-chloro-1-((4-fluoropiperidin-4-yl)methyl)-1H-indol-7-yl)pyrrolo[2,1-f][1,2,4]triazin-6-yl)methyl)-1-(methyl-d3)pyrimidine-2,4(1H,3H)-dione hydrochloride]
